For assay [1], the target named is EGFR Del19/T790M/C797S (H1975-clone #28) (Homo sapiens, UniProt P00533, T790M/C797S, form not given). The experiment in a line: EGFR degradation, HTRF total-EGFR assay, H1975-clone #28 (DTC). In kind it is cell-based. Particulars: H1975-clone #28 Del19/T790M/C797S, 16 h treatment. The source says:
(§1) H1975-clone #28 (Del19/T790M/C797S, or abbr: DTC), H1975-clone #23 (Del19/C797S, or abbr: DC), H1975-clone #25 (L858R/T790M/C797S, or abbr: LTC) and H1975-clone #8 (L858R/C797S, or abbr: LC). EGFR-Del19/T790M/C797S, EGFR-Del19/C797S, EGFR-L858R/T790M/C797S and EGFR-L858R/C797S were stably expressed in H1975 cell lines by lentivirus-mediated over-expression, respectively. The EGFR over-expressed cells then underwent knockout, in which the EGFR targeting sgRNA was designed to only target the endogenous EGFR copies and preserve the exogenous EGFR copies. Followed by the knockout, the edited H1975 cells were seeded in 96 well plates at the concentration of 1 cell/well, cultured for about 2 weeks to allow single clones formation. The formed clones were screened by DNA sequencing and whole exon sequencing analysis for the desired edition. H1975-clone #28, H1975-clone #23, H1975-clone #25 and H1975-clone #8 were finally confirmed as homozygous Del19/T790M/C797S EGFR, Del19/C797S EGFR, L858R/T790M/C797S EGFR and L858R/C797S EGFR clones, respectively.
(§2) H1975-#25, H1975-#28, H1975-#23 and H1975-#8 cells are treated with compounds diluted in 0.2% DMSO cell culture medium on day 2, incubate for 16 h, 37° C., 5% CO2. The final concentration of compounds in all assay is start with 10 μM, 5-fold dilution, total 8 doses were included.
(§3) Total-EGFR cellular kit(64NG1PEH) were used for evaluating EGFR degradation.
(§4) After 16 h treatment, add HTRF lysis buffer to each well; seal the plate and incubate 1 hour at room temperature on a plate shaker; Once the cells are lysed, 16 μL of cell lysate are transferred to a PE 384-well HTRF detection plate; 4 μL of pre-mixed HTRF antibodies are added to each well; cover the plate with a plate sealer, spin 1000 rpm for 1 min, incubate overnight at room temperature; read on BMG PheraStar with HTRF protocol (337 nm-665 nm-620 nm).
(§5) The inhibition (degradation) percentage of the compound was calculated by the following equation:
(§6) Inhibition percentage of Compound=100−100×(Signal−low control)/(High control−low control), wherein signal=each test compound group
(§7) High control=Cell group with added DMSO and without compound, indicating microplate readings without EGFR degradation.
(§8) Imax (Dmax) is the maximum percentage of inhibition (degradation).
(§9) The IC50 (DC50) value of a compound can be obtained by fitting the following equation
(§10) Wherein, X and Y are known values, and IC50, Hillslope, Top and Bottom are the parameters obtained by fitting with software. Y is the inhibition percentage (calculated from the equation), X is the concentration of the compound; IC50 is the concentration of the compound when the 50% inhibition is reached. The smaller the IC50 value is, the stronger the inhibitory ability of the compound is. Vice versa, the higher the IC50 value is, the weaker the ability the inhibitory ability of the compound is; Hillslope represents the slope of the fitted curve, generally around 1*; Bottom represents the minimum value of the curve obtained by data fitting, which is generally 0%±20%; Top represents the maximum value of the curve obtained by data fitting, which is generally 100%±20%. The experimental data were fitted by calculating and analyzing with Dotmatics data analysis software.

In assay [2] the target is T1, EGFR L858R/T790M/C797S (H1975-clone #25) (Homo sapiens, UniProt P00533, C797S/L858R/T790M).
T1 construct: expressed in transfected cells; host or cells: H1975 (clone #25), lentiviral transduction, endogenous EGFR knocked out
T1 sequence (P00533 25-1210 T790M/C797S/L858R): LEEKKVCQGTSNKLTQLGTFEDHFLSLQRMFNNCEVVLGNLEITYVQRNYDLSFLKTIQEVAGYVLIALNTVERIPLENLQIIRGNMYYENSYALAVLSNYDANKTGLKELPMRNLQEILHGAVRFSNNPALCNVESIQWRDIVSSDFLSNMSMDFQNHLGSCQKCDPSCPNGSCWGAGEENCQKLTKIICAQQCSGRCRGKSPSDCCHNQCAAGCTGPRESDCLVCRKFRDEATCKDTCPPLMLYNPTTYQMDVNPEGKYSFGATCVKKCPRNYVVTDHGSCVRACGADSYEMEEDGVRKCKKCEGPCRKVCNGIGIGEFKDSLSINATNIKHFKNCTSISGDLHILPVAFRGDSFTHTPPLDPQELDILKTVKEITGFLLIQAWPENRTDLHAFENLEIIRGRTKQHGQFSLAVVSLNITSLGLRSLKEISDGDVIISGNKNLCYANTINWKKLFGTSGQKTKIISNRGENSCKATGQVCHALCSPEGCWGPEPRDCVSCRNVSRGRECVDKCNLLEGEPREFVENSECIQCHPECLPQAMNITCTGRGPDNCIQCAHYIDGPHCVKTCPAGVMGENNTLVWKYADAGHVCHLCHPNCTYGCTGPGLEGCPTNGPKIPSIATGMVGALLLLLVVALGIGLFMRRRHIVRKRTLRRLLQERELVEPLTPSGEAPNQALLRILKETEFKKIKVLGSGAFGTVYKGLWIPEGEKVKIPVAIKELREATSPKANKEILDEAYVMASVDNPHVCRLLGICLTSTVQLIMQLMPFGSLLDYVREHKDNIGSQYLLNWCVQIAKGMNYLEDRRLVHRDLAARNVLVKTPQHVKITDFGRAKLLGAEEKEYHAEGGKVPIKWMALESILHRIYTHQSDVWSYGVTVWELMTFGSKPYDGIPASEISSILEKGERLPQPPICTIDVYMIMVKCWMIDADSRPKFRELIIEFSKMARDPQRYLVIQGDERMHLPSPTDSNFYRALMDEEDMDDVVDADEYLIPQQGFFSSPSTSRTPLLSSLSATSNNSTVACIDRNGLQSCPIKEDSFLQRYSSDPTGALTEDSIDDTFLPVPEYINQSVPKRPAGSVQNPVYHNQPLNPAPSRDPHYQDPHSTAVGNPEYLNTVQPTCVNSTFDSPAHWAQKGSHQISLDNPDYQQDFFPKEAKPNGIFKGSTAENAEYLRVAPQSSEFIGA
Put plainly: EGFR degradation, HTRF total-EGFR assay, H1975-clone #25 (LTC). The settings on record: H1975-clone #25 L858R/T790M/C797S, 16 h treatment. Format: cell-based.
Text: as §1, §2, §3, §4, §5, §6, §7, §8, §9, §10

SMILES strings stand for the structures.

Chain of EGFR Del19/T790M/C797S (H1975-clone #28) (P00533 with tags, fused parts or gaps DEL746-750/T790M/C797S, form open): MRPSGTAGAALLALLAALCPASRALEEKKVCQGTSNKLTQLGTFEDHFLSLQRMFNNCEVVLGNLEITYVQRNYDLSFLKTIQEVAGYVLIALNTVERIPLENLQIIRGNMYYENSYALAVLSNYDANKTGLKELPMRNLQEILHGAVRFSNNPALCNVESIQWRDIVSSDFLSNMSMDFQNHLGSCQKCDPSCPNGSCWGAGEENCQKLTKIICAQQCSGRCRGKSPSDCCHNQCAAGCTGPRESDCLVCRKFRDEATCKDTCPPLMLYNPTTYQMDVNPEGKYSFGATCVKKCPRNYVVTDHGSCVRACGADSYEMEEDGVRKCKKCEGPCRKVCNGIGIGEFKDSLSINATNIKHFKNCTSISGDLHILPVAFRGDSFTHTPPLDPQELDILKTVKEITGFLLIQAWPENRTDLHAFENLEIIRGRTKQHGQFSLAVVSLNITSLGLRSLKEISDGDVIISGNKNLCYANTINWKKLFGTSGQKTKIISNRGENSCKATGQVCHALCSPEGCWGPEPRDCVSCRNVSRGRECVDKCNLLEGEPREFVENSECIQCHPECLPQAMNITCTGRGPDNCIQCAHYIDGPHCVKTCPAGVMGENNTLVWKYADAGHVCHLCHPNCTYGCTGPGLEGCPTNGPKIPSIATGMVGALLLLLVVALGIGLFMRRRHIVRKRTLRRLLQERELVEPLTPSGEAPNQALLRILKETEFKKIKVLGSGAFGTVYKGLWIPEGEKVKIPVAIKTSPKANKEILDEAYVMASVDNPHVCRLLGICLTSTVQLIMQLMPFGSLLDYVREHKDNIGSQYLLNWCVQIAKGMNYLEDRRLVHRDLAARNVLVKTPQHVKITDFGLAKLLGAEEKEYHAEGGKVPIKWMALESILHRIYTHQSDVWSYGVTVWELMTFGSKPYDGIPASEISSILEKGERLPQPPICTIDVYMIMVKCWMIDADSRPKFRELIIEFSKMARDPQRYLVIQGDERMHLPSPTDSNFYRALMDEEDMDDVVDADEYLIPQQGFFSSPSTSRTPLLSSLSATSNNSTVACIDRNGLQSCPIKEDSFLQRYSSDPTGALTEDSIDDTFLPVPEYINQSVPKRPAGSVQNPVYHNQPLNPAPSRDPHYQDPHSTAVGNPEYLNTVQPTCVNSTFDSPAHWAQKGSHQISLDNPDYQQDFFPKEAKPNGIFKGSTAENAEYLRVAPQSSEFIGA

Consider `Cc1cc2cc(n1)-c1cnn(C)c1OC[C@H]1C[C@@H](CN3/C(=N/C2=O)Nc2ccc(N4CCN(C5CCN(c6ccc(C7CCC(=O)NC7=O)nc6)CC5)C[C@@H]4C)cc23)C1` (stereo partly drawn) [Example 36, 3-(5-(4-((S)-4-((7^1s,7^3R,E)-1^1,2^6-dimethyl-3-oxo-5^2,5^3-dihydro-1^1H,5^1H-9-oxa-4-aza-5(2,1)-benzo[d]imidazola-2(2,4)-pyridina-1(4,5)-pyrazola-7(1,3)-cyclobutanacyclononaphane-5^6-yl)-3-methylpiperazin-1-yl)piperidin-1-yl)pyridin-2-yl)piperidine-2,6-dione], for which, in assay [1], the “Degradation H1975 # 28 DTC” value is reported as 78.0. In addition, in assay [2], the “Degradation H1975 # 25-LTC” value amounted to 87.7.
Take `Cc1cc2cc(n1)-c1cnn(C)c1OC[C@H]1C[C@@H](CN3/C(=N/C2=O)Nc2ccc(N4CCN(C5CCN(c6ccc(C7CCC(=O)NC7=O)nc6)CC5)C(=O)C4)cc23)C1` (some centres unmarked) [Example 35, 3-(5-(4-(4-((7^1s,7^3s,E)-1^1,2^6-dimethyl-3-oxo-5^2,5^3-dihydro-1^1H,5^1H-9-oxa-4-aza-5(2,1)-benzo[d]imidazola-2(2,4)-pyridina-1(4,5)-pyrazola-7(1,3)-cyclobutanacyclononaphane-5^6-yl)-2-oxopiperazin-1-yl)piperidin-1-yl)pyridin-2-yl)piperidine-2,6-dione]: the “Degradation H1975 # 28 DTC” value in assay [1] is listed as 72.9. Besides, in assay [2], the “Degradation H1975 # 25-LTC” value amounted to 85.9.
The like results for `Cc1cc2cc(n1)-c1cnn(C)c1OC[C@H]1C[C@@H](CN3/C(=N/C2=O)Nc2ccc(N4CCN(C5CCN(c6cc(F)c([C@H]7CCC(=O)NC7=O)c(F)c6)CC5)[C@H](CO)C4)cc23)C1` [Example 30, (R)-3-(4-(4-((S)-4-((7^1s,7^3R,E)-1^1,2^6-dimethyl-3-oxo-5^2,5^3-dihydro-1^1H,5^1H-9-oxa-4-aza-5(2,1)-benzo[d]imidazola-2(2,4)-pyridina-1(4,5)-pyrazola-7(1,3)-cyclobutanacyclononaphane-5^6-yl)-2-(hydroxymethyl)piperazin-1-yl)piperidin-1-yl)-2,6-difluorophenyl)piperidine-2,6-dione] were, in that order, 84.4 and 90.3.
The matching figures for `COC[C@H]1CN(c2ccc3c(c2)N2C[C@H]4C[C@@H](COc5c(cnn5C)-c5cc(cc(C)n5)C(=O)/N=C/2N3)C4)CCN1C1CCN(c2cc(F)c([C@H]3CCC(=O)NC3=O)c(F)c2)CC1` [Example 27, (R)-3-(4-(4-((R)-4-((7^1s,7^3S,E)-1^1,2^6-dimethyl-3-oxo-5^2,5^3-dihydro-1^1H,5^1H-9-oxa-4-aza-5(2,1)-benzo[d]imidazola-2(2,4)-pyridina-1(4,5)-pyrazola-7(1,3)-cyclobutanacyclononaphane-5^6-yl)-2-(methoxymethyl)piperazin-1-yl)piperidin-1-yl)-2,6-difluorophenyl)piperidine-2,6-dione]: 84.7 and 89.6.
Regarding `Cc1cc2cc(n1)-c1cnn(C)c1OC[C@H]1C[C@@H](CN3/C(=N/C2=O)Nc2ccc(N4CCN(C5CN(c6cc(F)c([C@H]7CCC(=O)NC7=O)c(F)c6)C5)CC4)cc23)C1` [Example 29, (R)-3-(4-(3-(4-((7^1s,7^3s,E)-1^1,2^6-dimethyl-3-oxo-5^2,5^3-dihydro-1^1H,5^1H-9-oxa-4-aza-5(2,1)-benzo[d]imidazola-2(2,4)-pyridina-1(4,5)-pyrazola-7(1,3)-cyclobutanacyclononaphane-5^6-yl)piperazin-1-yl)azetidin-1-yl)-2,6-difluorophenyl)piperidine-2,6-dione], the “Degradation H1975 # 28 DTC” value in assay [1] was found to be 78.3. For the same compound, the “Degradation H1975 # 25-LTC” value in assay [2] is 42.6.
As for `Cc1cc2cc(n1)-c1cnn(C)c1OC[C@H]1C[C@@H](CN3/C(=N/C2=O)Nc2ccc(N4CCN(C5CN(C6CCN(c7ccc(C8CCC(=O)NC8=O)nc7C)CC6)C5)CC4)cc23)C1` (some centres unmarked) [Example 121, 3-(5-(4-(3-(4-((7^1s,7^3s,E)-1^1,2^6-dimethyl-3-oxo-5^2,5^3-dihydro-1^1H,5^1H-9-oxa-4-aza-5(2,1)-benzo[d]imidazola-2(2,4)-pyridina-1(4,5)-pyrazola-7(1,3)-cyclobutanacyclononaphane-5^6-yl)piperazin-1-yl)azetidin-1-yl)piperidin-1-yl)-6-methylpyridin-2-yl)piperidine-2,6-dione], the “Degradation H1975 # 28 DTC” value in assay [1] is 83.2. For the same compound, in assay [2], the “Degradation H1975 # 25-LTC” value came to 89.5.
The like results for `Cc1cc2cc(n1)-c1cnn(C)c1OC[C@H]1C[C@@H](CN3/C(=N/C2=O)Nc2ccc(N4C[C@H]5C[C@@H]4CN5C4CCN(c5ccc(C6CCC(=O)NC6=O)nc5C)CC4)cc23)C1` (stereo partly drawn) [Example 43, 3-(5-(4-((1R,4R)-5-((7^1s,7^3S,E)-1^1,2^6-dimethyl-3-oxo-5^2,5^3-dihydro-1^1H,5^1H-9-oxa-4-aza-5(2,1)-benzo[d]imidazola-2(2,4)-pyridina-1(4,5)-pyrazola-7(1,3)-cyclobutanacyclononaphane-5^6-yl)-2,5-diazabicyclo[2.2.1]heptan-2-yl)piperidin-1-yl)-6-methylpyridin-2-yl)piperidine-2,6-dione] were, in that order, 75.5 and 87.1.
The like results for `Cc1cc2cc(n1)-c1cnn(C)c1OC[C@H]1C[C@@H](CN3/C(=N/C2=O)Nc2ccc(N4C5CCC4CN(C4CCN(c6cnc(C7CCC(=O)NC7=O)cc6C)CC4)C5)cc23)C1` (some centres unmarked) [Example 130, 3-(5-(4-(8-((7^1s,7^3s,E)-1^1,2^6-dimethyl-3-oxo-5^2,5^3-dihydro-1^1H,5^1H-9-oxa-4-aza-5(2,1)-benzo[d]imidazola-2(2,4)-pyridina-1(4,5)-pyrazola-7(1,3)-cyclobutanacyclononaphane-5^6-yl)-3,8-diazabicyclo[3.2.1]octan-3-yl)piperidin-1-yl)-4-methylpyridin-2-yl)piperidine-2,6-dione] were, in that order, 83.4 and 90.7.
The like results for `COC[C@@H]1CN(c2ccc3c(c2)N2C[C@H]4C[C@@H](COc5c(cnn5C)-c5cc(cc(C)n5)C(=O)/N=C/2N3)C4)CCN1C1CCN(c2cc(F)c([C@H]3CCC(=O)NC3=O)c(F)c2)CC1` [Example 20, (R)-3-(4-(4-((S)-4-((7^1s,7^3R,E)-1^1,2^6-dimethyl-3-oxo-5^2,5^3-dihydro-1^1H,5^1H-9-oxa-4-aza-5(2,1)-benzo[d]imidazola-2(2,4)-pyridina-1(4,5)-pyrazola-7(1,3)-cyclobutanacyclononaphane-5^6-yl)-2-(methoxymethyl)piperazin-1-yl)piperidin-1-yl)-2,6-difluorophenyl)piperidine-2,6-dione] were, in that order, 89.8 and 92.5.
For `COC[C@H]1CN(c2ccc3c(c2)N2C[C@H]4C[C@@H](COc5c(cnn5C)-c5cc(cc(C)n5)C(=O)/N=C/2N3)C4)CCN1C1CCN(c2cnc(C3CCC(=O)NC3=O)cc2C)CC1` (stereo partly drawn) [Example 23, 3-(5-(4-((R)-4-((7^1s,7^3S,E)-1^1,2^6-dimethyl-3-oxo-5^2,5^3-dihydro-1^1H,5^1H-9-oxa-4-aza-5(2,1)-benzo[d]imidazola-2(2,4)-pyridina-1(4,5)-pyrazola-7(1,3)-cyclobutanacyclononaphane-5^6-yl)-2-(methoxymethyl)piperazin-1-yl)piperidin-1-yl)-4-methylpyridin-2-yl)piperidine-2,6-dione], in assay [1], the “Degradation H1975 # 28 DTC” value is on record as 87.0. Further, the “Degradation H1975 # 25-LTC” value in assay [2] is listed as 91.3.

Source of the values: patent publication US20250332266A1, “COMPOUNDS FOR THE DEGRADATION OF EGFR KINASE” (BeiGene Switzerland GmbH, priority 2022, published 2025).
